In article PMC9037358 (RSC Advances, 2021):

Columns and labels:
Salmonella typhimurium = assay: Antimicrobial activity; type: cell-based; settings: 50 μg mL^−1; NA: not active
[1] = test system: Escherichia coli ATCC 25955; assay: Antimicrobial activity; type: cell-based; settings: 50 μg mL^−1; NA: not active
Klebsiella pneumonia = assay: Antimicrobial activity; type: cell-based; settings: 50 μg mL^−1; NA: not active
Proteus vulgaris = assay: Antimicrobial activity; type: cell-based; settings: 24 h, read-out: inhibition ratio% P. vulgaris
[2] = test system: Staphylococcus aureus NRRL B-767; assay: Antimicrobial activity; type: cell-based; settings: 50 μg mL^−1, NA: not active
[3] = MTT cytotoxicity assay, normal breast cell line; type: cell-based, human; settings: human, MCF 10A normal breast cells
MCF-7 = assay: MTT cytotoxicity assay; type: cell-based; settings: Homo sapiens, MCF7, 48 h, read-out: Cytotoxicity IC50 μM ± S.D. MCF-7
MDA-MB-231 [4] = assay: MTT cytotoxicity assay; type: cell-based; settings: Homo sapiens, MDA-MB-231, 48 h, read-out: Cytotoxicity IC50 μM ± S.D. MDA-MB-231
P. vulgaris = assay: Anti-biofilm activity; type: cell-based; settings: 50 μg mL^−1
P. aeruginosa = assay: Anti-biofilm activity; type: cell-based; settings: 50 μg mL^−1
S. aureus = assay: Anti-biofilm activity; type: cell-based; settings: 50 μg mL^−1
K. pneumonia = assay: Anti-biofilm activity; type: cell-based; settings: 50 μg mL^−1
[5] = test system: Candida albicans ATCC 10231; assay: Antimicrobial activity; type: cell-based; settings: 50 μg mL^−1; NA: not active
E. coli [6] = assay: Anti-biofilm activity; type: cell-based; settings: 50 μg mL^−1
MDA-MB-231 [7] = assay: Annexin V-FITC apoptosis assay; type: cell-based, human
MCF 10A = assay: MTT cytotoxicity assay, normal breast cell line; type: cell-based, human; settings: both breast cancer cell lines vs MCF-10A
S. typhimurium = assay: Anti-biofilm activity; type: cell-based; settings: 50 μg mL^−1
carbonic anhydrase IX = carbonic anhydrase IX (Homo sapiens, UniProt Q16790); assay: In vitro carbonic anhydrase IX enzyme inhibition; type: biochemical
carbonic anhydrase II = carbonic anhydrase II (Homo sapiens, UniProt P00918); assay: In vitro carbonic anhydrase II enzyme inhibition; type: biochemical
MDA-MB-231 [8] = assay: Cell cycle analysis; type: cell-based, human; settings: compared to positive control
MDA-MB-231 [9] = assay: Cellular uptake assay; type: cell-based, human; settings: HPLC
CA IX = settings: read-out: CA IX IC50; as reported; cited from earlier work
E. coli [10] = settings: cited from earlier work
S. flexenari = settings: cited from earlier work

| SMILES | inhibition ratio% S. typhimurium (Salmonella typhimurium) | inhibition of growth at 50 µg/mL (Proteus vulgaris) | inhibition ratio% S. aureus [2] | IC50 at 48 h [3] | IC50 (MCF-7) | IC50 (MDA-MB-231 [4]) | Biofilm inhibition ratio% P. vulgaris (P. vulgaris) | Biofilm inhibition ratio% S. aureus (S. aureus) | Biofilm inhibition ratio% K. pneumonia (K. pneumonia) | Biofilm inhibition ratio% E. coli (E. coli [6]) | further results |
| --- | --- | --- | --- | --- | --- | --- | --- | --- | --- | --- | --- |
| O=C(O)c1cn(C2CC2)c2cc(N3CCNCC3)c(F)cc2c1=O [Cip, ciprofloxacin, reference compound] | 99.56% | 99.8% | 99.25% | – | – | – | – | – | – | – | inhibition ratio% E. coli [1]: 99.1%; inhibition ratio% K. pneumonia (Klebsiella pneumonia): 99.7%; inhibition ratio% S. aureus ([2]; listed as CIP): 99.2% |
| NS(=O)(=O)c1ccc(NC2=NC(=O)/C(=C\c3ccccc3)S2)cc1 [Compound 4a, (E)-4-(5-Benzylidene-4-oxo-4,5-dihydrothiazol-2-ylamino)benzenesulfonamide] | – | – | – | 24.2 ± 0.9 µM | 9.63 ± 0.4 µM | 12.8 ± 0.5 µM | – | – | – | – | – |
| NS(=O)(=O)c1ccc(NC2=NC(=O)/C(=C\c3ccc(O)cc3)S2)cc1 [Compound 4b, (E)-4-(5-(4-Hydroxybenzylidene)-4-oxo-4,5-dihydrothiazol-2-ylamino)benzenesulfonamide] | – | – | – | 17.8 ± 0.6 µM | 3.63 ± 0.1 µM | 14.6 ± 0.6 µM | 16.85% | 53.06% | 78.29% | 18.78% | Biofilm inhibition ratio% P. aeruginosa (P. aeruginosa): 45.51%; inhibition ratio% C. albicans [5]: 8.87% |
| COc1ccc(/C=C2/SC(Nc3ccc(S(N)(=O)=O)cc3)=NC2=O)cc1 [Compound 4c, (E)-4-(5-(4-Methoxybenzylidene)-4-oxo-4,5-dihydrothiazol-2-ylamino)benzenesulfonamide] | – | – | – | 22.7 ± 0.8 µM | 3.67 ± 0.1 µM | 6.31 ± 0.2 µM | – | – | – | – | – |
| NS(=O)(=O)c1ccc(NC2=NC(=O)/C(=C\c3ccc(Cl)cc3)S2)cc1 [Compound 4d, (E)-4-(5-(4-Chlorobenzylidene)-4-oxo-4,5-dihydrothiazol-2-ylamino)benzenesulfonamide] | – | – | – | 22.9 ± 0.8 µM | 15.5 ± 0.6 µM | 1.88 ± 0.1 µM | – | – | – | – | – |
| C=CCc1cc(/C=C2/SC(Nc3ccc(S(N)(=O)=O)cc3)=NC2=O)c(O)c(OC)c1 [Compound 4e, (E)-4-(5-(5-Allyl-2-hydroxy-3-methoxybenzylidene)-4-oxo-4,5-dihydrothiazol-2-ylamino)benzenesulfonamide] | 75.09% | 42% | 80.69% | 19.4 ± 0.7 µM | 4.58 ± 1.8 µM | 3.58 ± 0.1 µM | 61.41% | 45.92% | 18.60% | 15.47% | necrosis phase (MDA-MB-231 [7]; upper left quadrant): 16.65%; annexin V-FITC-positive cells, late apoptotic phase (MDA-MB-231 [7]; upper right quadrant): 22.04%; selectivity to breast cancer cell lines over MCF-10A (MCF 10A): 5.5 times; Biofilm inhibition ratio% S. typhimurium (S. typhimurium): 63.43%; IC50 (carbonic anhydrase IX; CA IX IC50 (nM)±S.D.): 10.9 nM; IC50 (carbonic anhydrase IX; CA IX IC50 (μM)): 11 nM; inhibition ratio% E. coli [1]: 60.66%; IC50 (carbonic anhydrase II): 3.92 µM; arrest in the S phase (MDA-MB-231 [8]): 1.4 fold; increase in the percentage of cells at pre-G1 (MDA-MB-231 [8]): 22 fold; inhibition ratio% K. pneumonia (Klebsiella pneumonia): 62.89%; level of compound taken up into MDA-MB-231 cell line (MDA-MB-231 [9]): 12.5 µg/mL |
| NS(=O)(=O)c1ccc(NC2=NC(=O)/C(=C\c3ccc(C(=O)O)cc3)S2)cc1 [Compound 4f, (E)-4-((4-oxo-2-(4-Sulfamoylphenylamino)thiazol-5(4H)-ylidene)methyl)benzoic acid] | 45.72% | 3.39% | 57.93% | 30.3 ± 1.1 µM | 36 ± 1.4 µM | 17.2 ± 0.7 µM | 64.67% | 21.43% | 10.08% | 19.89% | Biofilm inhibition ratio% S. typhimurium (S. typhimurium): 36.57%; inhibition ratio% E. coli [1]: 46.45%; inhibition ratio% K. pneumonia (Klebsiella pneumonia): 26.80% |
| NS(=O)(=O)c1ccc(NC2=NC(=O)/C(=C\c3ccc([N+](=O)[O-])cc3)S2)cc1 [Compound 4g, (E)-4-(5-(4-Nitrobenzylidene)-4-oxo-4,5-dihydrothiazol-2-ylamino)benzenesulfonamide] | 60.97% | 23.3% | 69.74% | 47.9 ± 1.7 µM | 2.55 ± 0.1 µM | 5.54 ± 0.2 µM | – | 35.24% | 79.46% | – | selectivity to breast cancer cell lines over MCF-10A (MCF 10A): 8.5 times; IC50 (carbonic anhydrase IX; CA IX IC50 (nM)±S.D.): 17 nM; IC50 (carbonic anhydrase IX; CA IX IC50 (μM)): 17 nM; IC50 (carbonic anhydrase II): 1.55 µM |
| COc1cc(/C=C2/SC(Nc3ccc(S(N)(=O)=O)cc3)=NC2=O)ccc1O [Compound 4h, (E)-4-(5-(4-Hydroxy-3-methoxybenzylidene)-4-oxo-4,5-dihydrothiazol-2-ylamino)benzenesulfonamide] | 59.11% | 19.1% | 68.30% | 26.1 ± 1.1 µM | 1.52 ± 0.1 µM | 1.56 ± 0.1 µM | 50.54% | 19.39% | 77.52% | 19.89% | selectivity to breast cancer cell lines over MCF-10A (MCF 10A): 17.5 times; Biofilm inhibition ratio% P. aeruginosa (P. aeruginosa): 35.96%; Biofilm inhibition ratio% S. typhimurium (S. typhimurium): 66.86%; IC50 (carbonic anhydrase IX; CA IX IC50 (nM)±S.D.): 25.6 nM; IC50 (carbonic anhydrase IX; CA IX IC50 (μM)): 26 nM; inhibition ratio% E. coli [1]: 29.51%; IC50 (carbonic anhydrase II): 2.19 µM; inhibition ratio% K. pneumonia (Klebsiella pneumonia): 33.51%; level of compound taken up into MDA-MB-231 cell line (MDA-MB-231 [9]): 17.07 µg/mL |
| COc1cc(/C=C2/SC(Nc3ccc(S(N)(=O)=O)cc3)=NC2=O)cc(OC)c1OC [Compound 4i, (E)-4-(4-oxo-5-(3,4,5-Trimethoxybenzylidene)-4,5-dihydrothiazol-2-ylamino)benzenesulfonamide] | – | – | – | 14.2 ± 0.5 µM | 4.05 ± 0.2 µM | 16.3 ± 0.6 µM | 7.61% | 22.55% | 5.43% | 49.72% | Biofilm inhibition ratio% S. typhimurium (S. typhimurium): 22.86% |
| CN(C)c1ccc(/C=C2/SC(Nc3ccc(S(N)(=O)=O)cc3)=NC2=O)cc1 [Compound 4j, (E)-4-(5-(4-(Dimethylamino)benzylidene)-4-oxo-4,5-dihydrothiazol-2-ylamino)benzenesulfonamide] | – | 5.08% | – | 13.1 ± 0.5 µM | 26.6 ± 1 µM | 10.1 ± 0.4 µM | – | – | – | – | – |
| C[C@@H]1[C@H](O)[C@@H](C)/C=C/C=C/CC/C=C/C=C/C=C/C=C/C(O[C@H]2O[C@H](C)[C@@H](O)[C@H](N)[C@@H]2O)CC2O[C@](O)(CC(O)C(O)CCC(O)CC(O)CC(O)CC(=O)O[C@H]1C)CC(O)C2C(=O)O (stereo partly shown) [Nys, nystatin, reference compound] | – | – | – | – | – | – | – | – | – | – | inhibition ratio% C. albicans [5]: 99.21% |
| C[C@@H](O)[C@H]1C(=O)N2C(C(=O)O)=C(SCCN=CN)C[C@H]12 [imipenem] | – | – | – | – | – | – | – | – | – | – | zone inhibition (ZI) E. coli (E. coli [10]): 30 mm; zone inhibition (ZI) S. flexenari (S. flexenari): 27 mm |
